Where “and” joins values, the source holds several entries; their conditions need not be identical. Equal entries are not always repeated.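 Cells were grown in 96-well plates and exposed to each compound for 48 hours at five concentrations; endpoints were interpolated linearly between bracketing concentrations, or set to the highest concentration if not reached. GI50 marks 50% less growth. TGI denotes the concentration required for complete inhibition of growth.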
What was measured:
Experiment in all cases: DTP human tumour cell line panel, 48 h
ACHN renal = tested on: ACHN renal
CAKI-1 renal = tested on: CAKI-1 renal
HT29 colon = tested on: HT29 colon
RPMI-8226 leukemia = tested on: RPMI-8226 leukemia
SN12C renal = tested on: SN12C renal
SNB-75 CNS = tested on: SNB-75 CNS
UACC-257 melanoma = tested on: UACC-257 melanoma
SR leukemia = tested on: SR leukemia
KM12 colon = tested on: KM12 colon
MCF7 breast = tested on: MCF7 breast

| SMILES | TGI (ACHN renal) | TGI (CAKI-1 renal) | TGI (HT29 colon) | TGI (RPMI-8226 leukemia) | TGI (SN12C renal) | TGI (SNB-75 CNS) | TGI (UACC-257 melanoma) | TGI (SR leukemia) | TGI (KM12 colon) | GI50 (ACHN renal) | GI50 (CAKI-1 renal) | GI50 (HT29 colon) | GI50 (KM12 colon) | GI50 (MCF7 breast) | TGI (MCF7 breast) | GI50 (SR leukemia) | GI50 (UACC-257 melanoma) | GI50 (RPMI-8226 leukemia) | GI50 (SN12C renal) | GI50 (SNB-75 CNS) |
| --- | --- | --- | --- | --- | --- | --- | --- | --- | --- | --- | --- | --- | --- | --- | --- | --- | --- | --- | --- | --- |
| CCOC(=O)C(=O)C(C#N)c1ccc(Cl)cc1 (centres undefined) | > 100 µM | > 100 µM | > 100 µM | > 100 µM | > 100 µM | > 100 µM | > 100 µM | – | – | – | – | – | – | – | – | – | – | – | – | – |
| O=C(Cc1nc2ccccc2o1)C(=O)Nc1ccc(Cl)cc1Cl | > 100 µM | > 100 µM | > 100 µM | > 100 µM | > 100 µM | > 100 µM | > 100 µM | 51.6 µM | – | – | – | – | – | – | – | – | – | – | – | – |
| COC(=O)C1=CC(=O)[C@@H]2CCCC[C@H]12 | > 100 µM | > 100 µM | – | > 100 µM | > 100 µM | > 100 µM | > 100 µM | > 100 µM | > 100 µM | – | – | – | – | – | – | – | – | – | – | – |
| Cc1c(C(=O)c2ccccc2)[n+](=O)c2cc(F)c(F)cc2n1[O-] | 3.02 µM | 3.45 µM | > 100 µM | – | – | – | 6.1 µM | 5.24 µM | 25 µM | 1.66 µM | 1.88 µM | 2.52 µM | 11.4 µM | 4.35 µM | 21 µM | 0.316 µM | 2.49 µM | – | – | – |
| N#CCCN(c1ccc(C=O)cc1)S(=O)(=O)c1ccccc1 | > 100 µM | > 100 µM | > 100 µM | > 100 µM | > 100 µM | > 100 µM | > 100 µM | > 100 µM | > 100 µM | – | – | – | – | – | – | – | – | – | – | – |
| N#Cc1cccc(C2C(=O)c3ccc(C(=O)c4ccc5c(c4)C(=O)N(c4ccc(Oc6ccc(N7C(=O)c8ccc(C(=O)c9ccc%10c(c9)C(=O)N(c9cccc(C#N)c9)C%10=O)cc8C7=O)cc6)cc4)C5=O)cc3C2=O)c1 (centres undefined) | > 100 µM | – | > 100 µM | > 100 µM | > 100 µM | > 100 µM | > 100 µM | – | > 100 µM | – | – | – | – | – | – | – | – | – | – | – |
| CCc1ncc(CO)n1Cc1cccc2ccccc12 | > 100 µM | > 100 µM | > 100 µM | > 100 µM | > 100 µM | > 100 µM | > 100 µM | – | > 100 µM | – | – | – | – | – | > 100 µM | – | – | – | – | – |
| O=C1c2ccc3c4c(ccc(c24)C(=O)N1CCNCc1ccccc1)C(=O)N(CCNCc1ccccc1)C3=O | 13.5 µM | 4.91 µM | – | 5.12 µM | 3.05 µM | 43.1 µM | 3.45 µM | – | 3.31 µM | 3.19 µM | 1.88 µM | – | 1.69 µM | – | – | – | 1.69 µM | 2 µM | 1.63 µM | 3.19 µM |
| Clc1ccccc1C1SCc2nc3ccccc3n21 (centres undefined) | > 100 µM | > 100 µM | > 100 µM | > 100 µM | 51.8 µM | 11.3 µM | – | 59.6 µM | > 100 µM | – | – | – | – | – | – | – | – | – | – | – |
| CC#CC#C/C(=C/C=CC(=O)OC)SC | – | > 100 µM | > 100 µM | – | > 100 µM | > 100 µM | > 100 µM | – | > 100 µM | – | – | – | – | – | > 100 µM | – | – | – | – | – |
| CC[As](CC)SCC1OC(OC(C)=O)C(OC(C)=O)C(OC(C)=O)C1OC(C)=O (centres undefined) | 31.5 µM | 10.4 µM | 54 µM | 36.2 µM | 28.4 µM | 52.7 µM | 28.6 µM | 75.4 µM | 34.7 µM | – | – | – | – | – | – | – | – | – | – | – |
| COC1C(=O)CCC2(CO2)C1(O)C1(C)OC1CC=C(C)C (centres undefined) | > 100 µM | > 100 µM | > 100 µM | – | > 100 µM | > 100 µM | > 100 µM | > 100 µM | > 100 µM | – | – | – | – | – | 53 µM | – | – | – | – | – |
| CC1C(O)=C(O)c2ccccc2N1O (centres undefined) | > 100 µM | > 100 µM | > 100 µM | > 100 µM | > 100 µM | > 100 µM | > 100 µM | – | > 100 µM | – | – | – | – | – | – | – | – | – | – | – |
| Cc1ccccc1-n1c(CCl)nc2ccc(Br)cc2c1=O | 83.8 µM | 3.75 µM | 16.7 µM | 71.4 µM | 16.6 µM | 29 µM | 32.2 µM | > 24.9 µM | 26.9 µM | – | – | – | – | – | – | – | – | – | – | – |
| O=C(O)CCC1c2[nH]c3ccccc3c2CCN1Cc1ccccc1 (centres undefined) | > 100 µM | > 100 µM | > 100 µM | – | > 100 µM | > 100 µM | > 100 µM | > 100 µM | > 100 µM | – | – | – | – | – | – | – | – | – | – | – |
| O=C(CC(=O)c1cccc([N+](=O)[O-])c1)C(=O)Nc1ccccc1 | > 100 µM | > 100 µM | > 100 µM | > 100 µM | > 100 µM | > 100 µM | > 100 µM | – | > 100 µM | – | – | – | – | – | – | – | – | – | – | – |
| COc1cc2c(cc1-c1coc3cc(O)ccc3c1=O)OCO2 | 40.9 µM | 51.1 µM | > 100 µM | 77.5 µM | 67.2 µM | 46.1 µM | 85.1 µM | – | > 100 µM | – | – | – | – | – | 90.9 µM | – | – | – | – | – |
| CC(=O)N[C@@H](Cc1ccc(OP(=O)(O)O)cc1)C(=O)N[C@H]1CCC(=O)N2CCC[C@@H](C(=O)NC3CCc4ccccc43)N2C1=O (some centres undefined) | > 25 µM | > 25 µM | > 25 µM | > 25 µM | > 25 µM | > 25 µM | > 25 µM | – | > 25 µM | > 25 µM | > 25 µM | > 25 µM | > 25 µM | > 25 µM | > 25 µM | – | > 25 µM | > 25 µM | > 25 µM | > 25 µM |
| Cc1cc(Cl)cc2c1NC(=O)C2(O)C(C(=O)c1ccccc1)c1ccccc1 (centres undefined) | > 100 µM and 40.6 µM | > 100 µM | > 100 µM | 64.5 µM and 42.4 µM | > 100 µM and 38.6 µM | 83.2 µM and 60.7 µM | > 100 µM and 52.1 µM | – | > 100 µM | 43 µM and 18.8 µM | 35.7 µM and > 100 µM | – | – | – | – | – | 57 µM and 19.9 µM | – | > 100 µM and 14.9 µM | – |
| CC(=O)Nc1cc2c3c(cccc3c1)-c1ccccc1-2 | 52.2 µM | 23.8 µM | > 100 µM | – | > 100 µM | > 100 µM | > 100 µM | > 100 µM | > 100 µM | 19.2 µM | 4 µM | > 100 µM | 32.7 µM | > 100 µM | > 100 µM | 28.6 µM | 90.3 µM | – | 0.72 µM | > 100 µM |
| CCCCCCCCCC[C@H](O)[C@H]1CC[C@@H]([C@@H](O)CC[C@H](O)[C@@H]2CCC(CCCCCCC[C@@H](O)CC3=C[C@H](C)OC3=O)O2)O1 (some centres undefined) | 4.47 µM and 15.7 µM | 23.8 µM | 3.5 µM | 4.03 µM | 8.23 µM and 30.6 µM | 9.56 µM and 28.1 µM | 4.47 µM and 13.8 µM | – | – | 2.15 µM | 5.26 µM | – | 4.25 µM | 3 µM | 9.6 µM and 22.9 µM | – | 0.921 µM | – | 8.18 µM | 9.29 µM |

Reference: PubChem BioAssay (NCI)
